Measurements taken from patent US9249129B2, “Morpholino substituted urea derivatives as mTOR inhibitors” (CELLZOME LIMITED, priority 2010, dated 2016).

How the values were obtained:
Assay in all cases: kinobeads assay with mass spectrometry detection of kinases (kinase selectivity profile)
Assay type in all cases: binding
kinases (kinome) [1] = biological target: T1, kinases (kinome) (Homo sapiens, UniProt P29323); details: EphB2 (TK), IPI00021275
T1 construct: determined in kinobeads assays with mass spectrometry detection of kinases as described previously; endogenous in cells; host or cells: cell lysate
T1 sequence (P29323 19-1055): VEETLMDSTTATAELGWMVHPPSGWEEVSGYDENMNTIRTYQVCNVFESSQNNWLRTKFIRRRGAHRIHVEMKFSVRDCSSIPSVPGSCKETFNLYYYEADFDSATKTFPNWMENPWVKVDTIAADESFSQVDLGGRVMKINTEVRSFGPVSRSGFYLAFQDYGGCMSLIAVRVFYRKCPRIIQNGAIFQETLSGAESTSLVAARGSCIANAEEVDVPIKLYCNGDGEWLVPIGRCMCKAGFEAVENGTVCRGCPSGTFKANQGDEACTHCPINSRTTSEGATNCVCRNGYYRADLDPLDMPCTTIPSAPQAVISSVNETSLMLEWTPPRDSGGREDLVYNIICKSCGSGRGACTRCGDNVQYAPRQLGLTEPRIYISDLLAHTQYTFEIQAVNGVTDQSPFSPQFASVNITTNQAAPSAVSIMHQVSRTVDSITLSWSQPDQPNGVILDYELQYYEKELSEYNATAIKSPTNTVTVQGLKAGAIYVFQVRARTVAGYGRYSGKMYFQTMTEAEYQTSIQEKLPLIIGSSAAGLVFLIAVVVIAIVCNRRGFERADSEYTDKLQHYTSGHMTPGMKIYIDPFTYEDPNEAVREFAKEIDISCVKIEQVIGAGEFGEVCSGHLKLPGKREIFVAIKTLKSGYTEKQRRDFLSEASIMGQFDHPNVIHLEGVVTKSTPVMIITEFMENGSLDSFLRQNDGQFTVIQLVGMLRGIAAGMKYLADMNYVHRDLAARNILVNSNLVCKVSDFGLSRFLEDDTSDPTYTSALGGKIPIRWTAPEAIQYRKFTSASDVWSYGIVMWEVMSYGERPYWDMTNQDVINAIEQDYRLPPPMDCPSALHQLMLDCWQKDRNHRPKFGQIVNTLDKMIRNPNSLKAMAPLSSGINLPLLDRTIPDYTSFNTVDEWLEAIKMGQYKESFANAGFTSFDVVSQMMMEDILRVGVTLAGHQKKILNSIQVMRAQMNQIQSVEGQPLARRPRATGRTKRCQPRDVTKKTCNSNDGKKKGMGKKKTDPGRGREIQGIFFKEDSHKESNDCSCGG
Excerpt: (§1) The protein kinase complement of the human genome (the kinome) was described previously (Manning et al., 2002. Science 298(5600):1912-1934). Sequence accession numbers are defined by the International Protein Index (IPI) (Kersey et al., 2004. Proteomics 4(7):1985-1988).

kinases (kinome) [2] = biological target: T2, kinases (kinome) (Homo sapiens, UniProt Q04771); details: ALK2 (TKL), IPI00029219
T2 construct: determined in kinobeads assays with mass spectrometry detection of kinases as described previously; endogenous in cells; host or cells: cell lysate
T2 sequence (Q04771 21-509): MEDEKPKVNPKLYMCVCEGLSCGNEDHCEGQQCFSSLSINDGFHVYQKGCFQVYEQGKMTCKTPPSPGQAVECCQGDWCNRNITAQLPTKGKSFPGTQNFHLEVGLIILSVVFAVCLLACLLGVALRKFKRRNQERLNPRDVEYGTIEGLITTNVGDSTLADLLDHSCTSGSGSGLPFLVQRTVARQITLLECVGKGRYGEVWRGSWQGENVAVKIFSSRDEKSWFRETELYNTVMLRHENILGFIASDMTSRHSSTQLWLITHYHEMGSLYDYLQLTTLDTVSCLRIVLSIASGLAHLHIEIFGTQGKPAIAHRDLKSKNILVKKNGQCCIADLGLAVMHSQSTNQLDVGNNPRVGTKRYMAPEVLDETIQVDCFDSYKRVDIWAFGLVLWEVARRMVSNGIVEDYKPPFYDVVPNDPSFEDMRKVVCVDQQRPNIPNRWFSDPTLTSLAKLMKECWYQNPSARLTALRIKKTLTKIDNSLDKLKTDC
Excerpt: as §1

kinases (kinome) [3] = biological target: T3, kinases (kinome) (Homo sapiens, UniProt Q05397); details: FAK (TK), IPI00413961
T3 construct: determined in kinobeads assays with mass spectrometry detection of kinases as described previously; endogenous in cells; host or cells: cell lysate
T3 sequence (Q05397 whole entry): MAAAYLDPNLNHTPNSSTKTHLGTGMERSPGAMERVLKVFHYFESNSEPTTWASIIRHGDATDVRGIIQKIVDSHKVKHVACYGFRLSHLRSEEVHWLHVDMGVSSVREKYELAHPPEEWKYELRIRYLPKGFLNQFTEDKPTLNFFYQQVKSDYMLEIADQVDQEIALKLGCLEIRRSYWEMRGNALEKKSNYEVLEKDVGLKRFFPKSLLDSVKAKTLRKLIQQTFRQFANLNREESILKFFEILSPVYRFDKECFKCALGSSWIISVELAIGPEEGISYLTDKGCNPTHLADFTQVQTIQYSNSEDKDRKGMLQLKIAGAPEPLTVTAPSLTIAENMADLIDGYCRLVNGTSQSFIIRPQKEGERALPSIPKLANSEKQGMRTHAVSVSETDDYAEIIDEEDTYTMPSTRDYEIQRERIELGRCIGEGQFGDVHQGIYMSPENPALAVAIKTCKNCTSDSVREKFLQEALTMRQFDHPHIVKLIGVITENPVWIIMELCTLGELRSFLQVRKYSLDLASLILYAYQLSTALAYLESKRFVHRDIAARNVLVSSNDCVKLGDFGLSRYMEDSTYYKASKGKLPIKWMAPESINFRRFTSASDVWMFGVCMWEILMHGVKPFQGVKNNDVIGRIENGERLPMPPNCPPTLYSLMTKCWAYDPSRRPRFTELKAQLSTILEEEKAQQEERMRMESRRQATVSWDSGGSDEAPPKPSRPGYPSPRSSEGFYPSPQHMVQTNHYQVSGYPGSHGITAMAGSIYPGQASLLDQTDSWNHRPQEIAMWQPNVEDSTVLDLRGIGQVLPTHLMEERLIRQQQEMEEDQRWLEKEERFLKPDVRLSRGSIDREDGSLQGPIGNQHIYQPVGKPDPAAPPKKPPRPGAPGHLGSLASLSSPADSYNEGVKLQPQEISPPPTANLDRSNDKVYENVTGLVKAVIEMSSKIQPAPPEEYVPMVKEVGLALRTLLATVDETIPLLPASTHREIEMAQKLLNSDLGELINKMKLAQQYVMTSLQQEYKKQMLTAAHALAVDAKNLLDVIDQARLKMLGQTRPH
Excerpt: as §1

kinases (kinome) [4] = biological target: T4, kinases (kinome) (Homo sapiens, UniProt Q12851); details: GCK (STE), IPI00149094
T4 construct: determined in kinobeads assays with mass spectrometry detection of kinases as described previously; endogenous in cells; host or cells: cell lysate
T4 sequence (Q12851 1-820): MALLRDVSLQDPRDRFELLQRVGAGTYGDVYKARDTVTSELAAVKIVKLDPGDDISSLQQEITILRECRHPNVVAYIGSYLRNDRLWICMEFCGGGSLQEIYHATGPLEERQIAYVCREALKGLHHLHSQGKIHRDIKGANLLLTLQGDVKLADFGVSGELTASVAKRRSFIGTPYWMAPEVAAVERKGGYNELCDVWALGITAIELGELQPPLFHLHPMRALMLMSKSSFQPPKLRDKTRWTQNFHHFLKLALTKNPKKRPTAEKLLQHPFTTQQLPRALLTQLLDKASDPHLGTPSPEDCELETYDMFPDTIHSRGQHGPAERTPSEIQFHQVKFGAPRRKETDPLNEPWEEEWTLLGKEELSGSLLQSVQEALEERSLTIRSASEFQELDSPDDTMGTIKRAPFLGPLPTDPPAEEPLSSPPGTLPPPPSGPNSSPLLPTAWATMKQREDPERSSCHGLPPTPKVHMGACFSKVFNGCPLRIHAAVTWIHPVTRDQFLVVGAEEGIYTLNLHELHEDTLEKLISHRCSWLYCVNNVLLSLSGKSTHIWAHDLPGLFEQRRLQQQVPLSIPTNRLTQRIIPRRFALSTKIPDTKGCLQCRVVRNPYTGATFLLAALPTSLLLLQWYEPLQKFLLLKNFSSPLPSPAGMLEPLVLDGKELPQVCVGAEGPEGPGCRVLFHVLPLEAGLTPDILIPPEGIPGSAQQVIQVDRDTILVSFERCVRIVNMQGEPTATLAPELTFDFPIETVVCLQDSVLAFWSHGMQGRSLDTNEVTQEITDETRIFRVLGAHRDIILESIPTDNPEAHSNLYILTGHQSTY
Excerpt: as §1

kinases (kinome) [5] = biological target: T5, kinases (kinome) (Homo sapiens, UniProt Q13233); details: MAP3K1 (STE), IPI00855985
T5 construct: determined in kinobeads assays with mass spectrometry detection of kinases as described previously; endogenous in cells; host or cells: cell lysate
T5 sequence (Q13233 whole entry): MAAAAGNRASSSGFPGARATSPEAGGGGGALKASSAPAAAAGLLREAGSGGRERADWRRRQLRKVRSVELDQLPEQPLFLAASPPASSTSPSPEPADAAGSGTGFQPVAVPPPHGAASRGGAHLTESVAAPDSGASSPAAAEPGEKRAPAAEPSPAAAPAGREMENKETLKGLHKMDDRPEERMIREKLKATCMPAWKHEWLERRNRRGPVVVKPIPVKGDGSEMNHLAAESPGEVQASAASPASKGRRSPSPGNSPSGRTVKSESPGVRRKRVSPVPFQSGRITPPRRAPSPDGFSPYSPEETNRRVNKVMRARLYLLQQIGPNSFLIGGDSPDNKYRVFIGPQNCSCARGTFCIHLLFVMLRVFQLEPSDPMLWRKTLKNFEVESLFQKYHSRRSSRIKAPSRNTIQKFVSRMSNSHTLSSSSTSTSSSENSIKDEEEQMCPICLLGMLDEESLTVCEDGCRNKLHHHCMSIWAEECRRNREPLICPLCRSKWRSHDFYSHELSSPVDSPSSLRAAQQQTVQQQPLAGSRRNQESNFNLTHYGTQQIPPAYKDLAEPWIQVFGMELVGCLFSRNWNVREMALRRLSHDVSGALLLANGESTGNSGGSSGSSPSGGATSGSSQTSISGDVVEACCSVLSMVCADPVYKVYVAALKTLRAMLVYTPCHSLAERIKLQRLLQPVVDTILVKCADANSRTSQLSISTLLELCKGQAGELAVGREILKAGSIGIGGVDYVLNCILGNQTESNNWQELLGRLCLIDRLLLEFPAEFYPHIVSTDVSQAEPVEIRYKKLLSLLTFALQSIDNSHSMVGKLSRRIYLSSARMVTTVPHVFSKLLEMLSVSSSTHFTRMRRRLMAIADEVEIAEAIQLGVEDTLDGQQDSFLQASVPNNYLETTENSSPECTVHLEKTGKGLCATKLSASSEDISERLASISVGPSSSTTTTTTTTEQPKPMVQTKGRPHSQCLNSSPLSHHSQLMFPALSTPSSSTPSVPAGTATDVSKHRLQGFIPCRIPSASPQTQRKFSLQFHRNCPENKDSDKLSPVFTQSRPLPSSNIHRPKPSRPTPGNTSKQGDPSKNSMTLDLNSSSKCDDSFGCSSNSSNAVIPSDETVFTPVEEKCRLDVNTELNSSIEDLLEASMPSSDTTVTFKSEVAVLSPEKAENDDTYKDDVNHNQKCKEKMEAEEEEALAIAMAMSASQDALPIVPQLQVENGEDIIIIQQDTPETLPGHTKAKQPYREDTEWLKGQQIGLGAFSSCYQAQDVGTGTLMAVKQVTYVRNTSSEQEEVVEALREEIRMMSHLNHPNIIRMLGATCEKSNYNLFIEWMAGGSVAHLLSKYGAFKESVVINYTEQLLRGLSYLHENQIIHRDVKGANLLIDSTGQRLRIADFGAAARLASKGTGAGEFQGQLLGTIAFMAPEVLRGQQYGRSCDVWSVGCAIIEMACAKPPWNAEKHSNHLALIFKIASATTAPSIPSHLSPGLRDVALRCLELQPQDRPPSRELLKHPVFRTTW
Excerpt: as §1

kinases (kinome) [6] = biological target: T6, kinases (kinome) (Homo sapiens, UniProt Q13554); details: CaMK2b (CAMK), IPI00221305
T6 construct: determined in kinobeads assays with mass spectrometry detection of kinases as described previously; endogenous in cells; host or cells: cell lysate
T6 sequence (Q13554 whole entry): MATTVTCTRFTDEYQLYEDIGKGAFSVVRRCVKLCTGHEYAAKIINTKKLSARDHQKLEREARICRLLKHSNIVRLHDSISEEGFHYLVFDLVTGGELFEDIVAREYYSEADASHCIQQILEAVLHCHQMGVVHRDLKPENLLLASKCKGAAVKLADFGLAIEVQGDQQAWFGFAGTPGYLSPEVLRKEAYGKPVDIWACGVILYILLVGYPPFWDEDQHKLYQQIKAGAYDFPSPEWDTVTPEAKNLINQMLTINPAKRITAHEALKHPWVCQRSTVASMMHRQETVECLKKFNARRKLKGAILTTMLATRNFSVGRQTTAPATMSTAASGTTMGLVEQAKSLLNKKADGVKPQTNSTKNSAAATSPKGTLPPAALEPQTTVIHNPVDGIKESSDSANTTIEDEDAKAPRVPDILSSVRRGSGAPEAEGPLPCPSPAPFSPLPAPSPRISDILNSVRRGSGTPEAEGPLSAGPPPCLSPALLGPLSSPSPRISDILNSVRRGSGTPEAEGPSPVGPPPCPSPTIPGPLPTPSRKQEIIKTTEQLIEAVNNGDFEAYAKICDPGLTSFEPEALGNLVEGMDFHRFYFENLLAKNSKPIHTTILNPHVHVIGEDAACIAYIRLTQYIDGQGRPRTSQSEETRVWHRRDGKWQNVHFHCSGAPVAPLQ
Excerpt: as §1

kinases (kinome) [7] = biological target: T7, kinases (kinome) (Homo sapiens, UniProt Q9Y572); details: RIPK3 (TKL), IPI00847572
T7 construct: determined in kinobeads assays with mass spectrometry detection of kinases as described previously; endogenous in cells; host or cells: cell lysate
T7 sequence (Q9Y572 whole entry): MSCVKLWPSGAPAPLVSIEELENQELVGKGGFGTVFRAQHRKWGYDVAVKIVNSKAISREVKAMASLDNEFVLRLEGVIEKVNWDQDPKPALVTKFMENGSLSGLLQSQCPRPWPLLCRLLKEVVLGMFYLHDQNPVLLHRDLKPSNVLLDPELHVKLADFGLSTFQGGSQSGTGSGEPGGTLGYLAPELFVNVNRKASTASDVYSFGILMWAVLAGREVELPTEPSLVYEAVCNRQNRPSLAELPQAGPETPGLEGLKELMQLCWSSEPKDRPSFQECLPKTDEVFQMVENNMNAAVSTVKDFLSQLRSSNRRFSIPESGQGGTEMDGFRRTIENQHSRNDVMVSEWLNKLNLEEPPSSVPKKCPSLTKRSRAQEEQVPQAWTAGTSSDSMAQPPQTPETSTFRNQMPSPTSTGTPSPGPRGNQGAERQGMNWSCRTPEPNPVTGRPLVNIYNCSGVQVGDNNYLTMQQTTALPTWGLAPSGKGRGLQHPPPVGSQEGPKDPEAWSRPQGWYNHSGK
Excerpt: as §1

Row | Structure (SMILES) | IC50 (kinases (kinome) [1]) | IC50 (kinases (kinome) [2]) | IC50 (kinases (kinome) [3]) | IC50 (kinases (kinome) [4]) | IC50 (kinases (kinome) [5]) | IC50 (kinases (kinome) [6]) | IC50 (kinases (kinome) [7])
1 | C[C@H]1COCCN1c1nc(-c2ccc(NC(=O)NC3CC3)cc2)cc(-c2cccnc2S(C)(=O)=O)n1 [Example 46, (S)-1-cyclopropyl-3-(4-(2-(3-methylmorpholino)-6-(2-(methylsulfonyl)pyridin-3-yl)pyrimidin-4-yl)phenyl)urea] | > 10 µM | > 10 µM | > 10 µM | > 10 µM | > 10 µM | > 10 µM | > 10 µM
2 | C[C@H]1COCCN1c1nc(-c2ccc(NC(=O)N[C@H]3CCC[C@@H]3O)cc2)cc(-c2cc(F)ccc2S(C)(=O)=O)n1 [Example 76, 1-(4-(6-(5-fluoro-2-(methylsulfonyl)phenyl)-2-((S)-3-methylmorpholino)pyrimidin-4-yl)phenyl)-3-((1S,2S)-2-hydroxycyclopentyl)urea] | > 10 µM | > 10 µM | > 10 µM | > 10 µM | > 10 µM | > 10 µM | > 10 µM
3 | C[C@H]1COCCN1c1cc(-c2ccccn2)nc(-c2ccc(NC(=O)NCCO)cc2)n1 [Example 43, (S)-1-(2-hydroxyethyl)-3-(4-(4-(3-methylmorpholino)-6-(pyridin-2-yl)pyrimidin-2-yl)phenyl)urea] | > 10 µM | > 10 µM | > 10 µM | > 10 µM | > 10 µM | > 10 µM | > 10 µM
4 | C[C@H]1COCCN1c1nc(-c2ccc(NC(=O)NC3CC3)cc2)cc(-c2ccccc2S(C)(=O)=O)n1 [Example 4, (S)-1-cyclopropyl-3-(4-(2-(3-methylmorpholino)-6-(2-(methylsulfonyl)phenyl)pyrimidin-4-yl)phenyl)urea] | > 10 µM | > 10 µM | > 10 µM | > 10 µM | > 10 µM |  | > 10 µM

Other lines, results leading:

Row | IC50 (kinases (kinome) [1]) | IC50 (kinases (kinome) [2]) | IC50 (kinases (kinome) [3]) | IC50 (kinases (kinome) [4]) | IC50 (kinases (kinome) [5]) | IC50 (kinases (kinome) [6]) | IC50 (kinases (kinome) [7]) | Structure (SMILES)
5 | > 10 µM | > 10 µM | > 10 µM | > 10 µM | > 10 µM | > 10 µM | > 10 µM | C[C@H]1COCCN1c1nc(-c2ccc(NC(=O)NC3CC3)cc2)cc(-c2cc(F)ccc2S(C)(=O)=O)n1 [Example 40, (S)-1-cyclopropyl-3-(4-(6-(5-fluoro-2-(methylsulfonyl)phenyl)-2-(3-methylmorpholino)pyrimidin-4-yl)phenyl)urea]
6 | > 10 µM | > 10 µM | > 10 µM | > 10 µM | > 10 µM | > 10 µM | > 10 µM | C[C@H]1COCCN1c1cc(-c2ccccc2S(C)(=O)=O)nc(-c2ccc(NC(=O)NC3CC3)cc2)n1 [Example 6, (S)-1-cyclopropyl-3-(4-(4-(3-methylmorpholino)-6-(2-(methylsulfonyl)phenyl)pyrimidin-2-yl)phenyl)urea]
7 | > 10 µM | > 10 µM | > 10 µM | > 10 µM | > 10 µM | > 10 µM | > 10 µM | CCNC(=O)Nc1ccc(-c2cc(-c3ccccc3C#N)nc(N3CCOC[C@@H]3C)n2)cc1 [Example 8, (S)-1-(4-(6-(2-cyanophenyl)-2-(3-methylmorpholino)pyrimidin-4-yl)phenyl)-3-ethylurea]
